Measurements: article PMC9626527, “SHR2285, the first selectively oral FXIa inhibitor in China: Safety, tolerability, pharmacokinetics and pharmacodynamics combined with aspirin, clopidogrel or ticagrelor” (Frontiers in Pharmacology, 2022)
Values belong to the compound of their own block, whether it stands above or below them.

Assay: clinical
Experimental: For group A, the dosing regimen was aspirin + clopidogrel + placebo or SHR2285 200 mg. Specifically, aspirin: 100 mg was taken orally every morning from day 1 to day 6; clopidogrel: 300 mg in the morning of the first day, 75 mg in the morning of the second day to the sixth day; placebo or SHR2285 (1:3): 200 mg orally every morning and evening until the morning of the sixth day.
For group B, the dosing regimen was aspirin + clopidogrel + placebo or SHR2285 300 mg. The use of aspirin and clopidogrel was the same as that of group A; Placebo or SHR2285: added the amount to 300 mg based on group A.
For group C, the administration regimen was aspirin + ticagrelor + placebo or SHR2285 300 mg. The use of aspirin, placebo or SHR2285 was the same as that in group B. Clopidogrel in group B was adjusted to ticagrelor: 180 mg orally in the morning of the first day, 90 mg in the morning and evening from the second day to the morning of the sixth day.
PK blood collection points: the blood of each group was collected in the morning of day 1 before administration (within 1 h before administration), 4 h and 12 h after administration (before administration in the evening); in the morning of day 3, day 4, and day 5 before administration (within 1 h before administration), within 1 h before administration on the morning of the sixth day, and 0.5 h, 1 h, 1.5 h, 2 h, 2.5 h, 3 h, 4 h, 5 h, 6 h, 8 h, 10 h, 12 h, 15 h, 24 h, 36 h, and 48 h after administration. About 7 ml of venous blood was collected, and the plasma was collected for concentration determination of aspirin and its active metabolites (salicylic acid) and clopyridine (group A, group B), ticagrelor and its active metabolite AR-C124910XX (group C), SHR2285 and its active metabolite SHR164471.
Based on the actual sampling time, the PK parameters of each component were calculated as a non-compartmental model by WinNonlin (Certara United States Inc, version 8.1). The pharmacokinetic parameters after multiple administrations were investigated: Cmax, AUCtau, AUC0-last, AUC0-inf, Tmax, t1/2, CLss/F, Vss/F, Ctrough and Caverage. The main pharmacokinetic parameters such as AUC0-last, AUC0-inf and Cmax were tabulated and summarized by descriptive statistics.
After logarithmic conversion, the AUCss and Cmax of each component in the SHR2285 group (aspirin + clopidogrel/ticagrelor + SHR2285) and placebo group (aspirin + clopidogrel/ticagrelor + placebo) were statistically analyzed by ANOVA model. The medication group was used as the independent variable. The geometric mean ratio of the corresponding PK parameter (SHR2285/placebo group) and the estimated value of its 90% confidence interval was obtained by taking the exponential conversion from the mean difference estimated by the model (SHR2285 group-placebo group) and its 90% confidence interval. SHR2285 and its metabolite SHR164471, aspirin/salicylic acid, clopidogrel, ticagrelor and its metabolite AR-C124910XX were determined by Frontage Laboratories Co., Ltd. (Shanghai, China) using high-performance liquid chromatography-tandem mass spectrometry (HPLC-MS, Sciex API 4000). The chromatographic column is WATERS CORTECS®T3 (50 mm × 4.6 mm, id 2.7 μm), column temperature is set at 40°C. Mobile phase A is ultrapure water (containing 0.1% formic acid), and mobile phase B is acetonitrile/water (90:10, containing 0.1% formic acid). The elution gradient is: 0–0.4 min, A-B (50:50), 0.4–0.8 min, A-B (5:95), 0.8–2 min, A-B (5:95), 2–2.4 (50:50), 2.4–3.5 min, A-B (50:50). The total time was 3.5 min and the flow rate was 1.0 ml/min. The ion source was ESI source at positive ion mode. The heating capillary temperature was 400°C; CAD was nine; curtain gas was 30; GS1 (N2) was 50; GS2 (N2) was 50; The method used was multiple reaction monitoring (MRM), and the ion reactions used for quantitative analysis were m/z 545.1→408.0 (SHR2285) and m/z 721.2→408.1 (SHR164471), respectively.

[1] = Placebo (C) n=8: aspirin + ticagrelor + placebo, day 6
[2] = SHR2285 (C) n=12: aspirin + ticagrelor + SHR2285 300 mg bid, day 6

Tmax (human, in vivo): one to 1.5
Structure (SMILES): COC(=O)[C@H](c1ccccc1Cl)N1CCc2sccc2C1 [Clopidogrel, clopidogrel]

AUCtau [1]: 2490(38.3) h*ng/mL
Cmax [1]: 389(35.4) ng/ml
Tmax (Placebo (C) n=8: aspirin + ticagrelor + placebo, day 6, median (range)): 1.5(1.0-2.5) h
AUCtau [2]: 2280(26.4) h*ng/mL
Cmax [2]: 367(28.1) ng/ml
Tmax (SHR2285 (C) n=12: aspirin + ticagrelor + SHR2285 300 mg bid, day 6, median (range)): 1.75(1.5-2.5) h
steady state in plasma (group C, six days after administration of ticagrelor): reached a steady state
Tmax (range across SHR2285 and placebo groups, day 6): 1.5 to 1.75 h
Structure (SMILES): CCCSc1nc(N[C@@H]2C[C@H]2c2ccc(F)c(F)c2)c2nnn([C@@H]3C[C@H](O)[C@@H](O)[C@H]3O)c2n1 [AR-C124910XX]

GLSMR of AUCtau (SHR2285 group/placebo group) (human, in vivo): 0.929
GLSMR of Cmax (SHR2285 group/placebo group) (human, in vivo): 1.06
Tmax (human, in vivo, Tmax): 1.5 to 1.75 h
steady state in plasma (in vivo): reached a steady state
Structure (SMILES): CCCSc1nc(N[C@@H]2C[C@H]2c2ccc(F)c(F)c2)c2nnn([C@@H]3C[C@H](OCCO)[C@@H](O)[C@H]3O)c2n1 [Ticagrelor, ticagrelor]
